Assay results reported in patent publication US20160106102A1, “KNOWN AND NEW HETEROCYCLIC COMPOUNDS AS PEST CONTROL AGENTS” (BAYER CROPSCIENCE AKTIENGESELLSCHAFT, priority 2013, published 2016).
Like-named read-outs stand apart in the source and are kept apart here.

What was measured:
Myzus persicae = Myzus persicae - sachet test; assay type: in vivo; conditions: 100% = all animals killed; for pest or weed control at 30 ppm: Myzus persicae, read-out: efficacy (kill in %)
Procedure, shortened: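 Green peach aphids feed through a sealed sachet on nutrient medium containing the water-diluted formulation (solvents: 2% N-methylpyrrolidone, 2% diacetone alcohol). Percent mortality read after the chosen time; 100% means all animals killed.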

[1] = log P determination by LC-MS in the acidic range; assay type: physicochemical
Source text: The LC-MS determination in the acidic range is effected at pH 2.7 using 0.1% aqueous formic acid and acetonitrile (contains 0.1% formic acid) as eluents, linear gradient from 10% acetonitrile to 95% acetonitrile. Alternatively, the determination is effected in the acidic range at pH 2.3 using 0.1% aqueous phosphoric acid and acetonitrile as eluents; linear gradient from 10% acetonitrile to 95% acetonitrile.

[2] = application rate of 6 ppm in nutrient medium
[3] = application rate of 30 ppm in nutrient medium
[4] = Table 3, HPLC on reversed-phase column (C 18), 55° C., acidic range (pH 2.7 or pH 2.3)
[5] = pH 2.7, LC-MS in the acidic range, read-out: log P (acid)
[6] = pH 2.7, values given in the synthesis examples and NMR lists, read-out: HPLC-MS: log P
[7] = Table 2, compounds of the formula (I-2), acidic range pH 2.7 or pH 2.3

## CCOC(=O)Cn1nc(NC(=O)c2cccnc2)cc1C [Compound I-1-24]
Myzus persicae; [2]
  efficacy (kill in %): 100%
Myzus persicae; [3]
  efficacy (kill in %): 100%
[1]; LC-MS in the acidic range
  log P (acid): 0.89

## Cc1cc(NC(=O)c2cccnc2)nn1C(=O)N1CCCC1 [Compound I-1-161]
Myzus persicae; [2]
  efficacy (kill in %): 80%
Myzus persicae; [3]
  efficacy (kill in %): 100%
[1]; LC-MS in the acidic range
  log P (acid): 1.29

## Cn1nnc(NC(=O)c2cccnc2)n1 [Compound I-4-2]
Myzus persicae; [3]
  efficacy (kill in %): 100%
[1]; Table 4, HPLC on reversed-phase column (C 18), 55° C., acidic range (pH 2.7 or pH 2.3)
  log P (acid): <−0.23

## CC(C)(C)c1ccc(Cn2ccc(NC(=O)c3cccnc3)n2)cc1 [Compound I-1-75]
Myzus persicae; [3]
  efficacy (kill in %): 100%
[1]; LC-MS in the acidic range
  log P (acid): 2.68

## Cc1cc(NC(=O)c2cncc(F)c2)nn1-c1ccccc1 [Compound I-1-350]
Myzus persicae; [3]
  efficacy (kill in %): 80%
[1]; LC-MS in the acidic range
  log P (acid): 2.18

## O=C(Nc1ccn(Cc2cccc(F)c2)n1)c1cccnc1 [Compound I-1-70]
Myzus persicae; [3]
  efficacy (kill in %): 100%
[1]; LC-MS in the acidic range
  log P (acid): 1.59

## Cc1cc(NC(=O)c2cccnc2)nn1C(=O)NCCOc1c(F)cccc1F [Compound I-1-171]
Myzus persicae; [2]
  efficacy (kill in %): 80%
Myzus persicae; [3]
  efficacy (kill in %): 100%
[1]; LC-MS in the acidic range
  log P (acid): 2.21

## Cc1cc(NC(=O)c2cccnc2)nn1Cc1ccc(Cl)c(Cl)n1 [Compound I-1-301]
Myzus persicae; [3]
  efficacy (kill in %): 100%
[1]; LC-MS in the acidic range
  log P (acid): 2.06

## Cc1cc(NC(=O)c2cccnc2)nn1-c1ccc(Cl)cc1 [Compound I-1-209]
Myzus persicae; [2]
  efficacy (kill in %): 80%
Myzus persicae; [3]
  efficacy (kill in %): 100%
[1]; LC-MS in the acidic range
  log P (acid): 2.09

## O=C(Nc1cnn(-c2ncccc2Cl)n1)c1cccnc1 [Compound I-3-16]
Myzus persicae; [3]
  efficacy (kill in %): 100%
[1]; [4]
  log P (acid): 1.32

## Cc1cc(NC(=O)c2cccnc2)nn1Cn1c(=O)n(C)c(=O)n1C [Compound I-1-145]
Myzus persicae; [3]
  efficacy (kill in %): 100%
[1]; LC-MS in the acidic range
  log P (acid): 0.82

## Cc1cc(N(Cc2nc(-c3ccccc3)no2)C(=O)c2cccnc2)nn1Cc1nc(-c2ccccc2)no1 [Compound I-1-305]
Myzus persicae; [3]
  efficacy (kill in %): 100%
[1]; LC-MS in the acidic range
  log P (acid): 3.26

## Cc1cc(NC(=O)c2cccnc2)nn1CC=C(Cl)Cl [Compound I-1-238]
Myzus persicae; [2]
  efficacy (kill in %): 100%
Myzus persicae; [3]
  efficacy (kill in %): 100%
[1]; LC-MS in the acidic range
  log P (acid): 1.83

## Cc1cc(NC(=O)c2cccnc2)nn1C(=O)NCc1cccc(Cl)c1 [Compound I-1-324]
Myzus persicae; [2]
  efficacy (kill in %): 100%
Myzus persicae; [3]
  efficacy (kill in %): 100%
[1]; LC-MS in the acidic range
  log P (acid): 2.39

## Cc1cc(NC(=O)c2cncc(Cl)c2)nn1Cc1ncccn1 [Compound I-1-276]
Myzus persicae; [2]
  efficacy (kill in %): 100%
Myzus persicae; [3]
  efficacy (kill in %): 100%
[1]; LC-MS in the acidic range
  log P (acid): 1.4

## Cc1cc(NC(=O)c2cccnc2)nn1Cc1nnc(-c2ccccc2)o1 [Compound I-1-299]
Myzus persicae; [2]
  efficacy (kill in %): 100%
Myzus persicae; [3]
  efficacy (kill in %): 100%
[1]; LC-MS in the acidic range
  log P (acid): 1.57

## Cc1cn(Cc2ncccn2)nc1NC(=O)c1cccnc1 [Compound I-1-136, N-[4-Methyl-1-(pyrimidin-2-ylmethyl)-1H-pyrazol-3-yl]nicotinamide]
Myzus persicae; [3]
  pest or weed control at 30 ppm: 100%
[1]; [5]
  chromatographic logP: 0.44
[1]; [6]
  chromatographic logP: 0.44

## Cc1cc(NC(=O)c2cccnc2)nn1C(=O)NCCOc1ccccc1 [Compound I-1-168]
Myzus persicae; [2]
  efficacy (kill in %): 100%
Myzus persicae; [3]
  efficacy (kill in %): 100%
[1]; LC-MS in the acidic range
  log P (acid): 2.18

## Cc1cc(N(C)C(=O)c2cccnc2)nn1CC1CC1 [Compound I-1-177]
Myzus persicae; [3]
  efficacy (kill in %): 100%
[1]; LC-MS in the acidic range
  log P (acid): 1.27

## Cc1cc(NC(=O)c2cccnc2)nn1Cn1nc(C)n(C2CC2)c1=O [Compound I-1-146]
Myzus persicae; [2]
  efficacy (kill in %): 100%
Myzus persicae; [3]
  efficacy (kill in %): 100%
[1]; LC-MS in the acidic range
  log P (acid): 1.05

## Cc1cc(NC(=O)c2cccnc2)nn1C(=O)NCCS(C)(=O)=O [Compound I-1-309]
Myzus persicae; [2]
  efficacy (kill in %): 100%
Myzus persicae; [3]
  efficacy (kill in %): 100%
[1]; LC-MS in the acidic range
  log P (acid): 0.97

## Cc1cc(C)nc(-n2cnc(NC(=O)c3cccnc3)n2)n1 [Compound I-2-22]
Myzus persicae; [3]
  efficacy (kill in %): 80%
[1]; [7]
  log P (acid): 0.86

## Cc1cc(NC(=O)c2cccnc2)nn1-c1ccc(C(F)(F)F)cn1 [Compound I-1-45]
Myzus persicae; [2]
  efficacy (kill in %): 100%
Myzus persicae; [3]
  efficacy (kill in %): 100%
[1]; LC-MS in the acidic range
  log P (acid): 2.64

## Cc1nn(-c2ncccc2Cl)nc1NC(=O)c1cccnc1 [Compound I-3-9]
Myzus persicae; [3]
  efficacy (kill in %): 100%
[1]; [4]
  log P (acid): 1.24

## Cc1cc(NC(=O)c2cccnc2)nn1Cc1csc(C(F)(F)F)n1 [Compound I-1-302]
Myzus persicae; [2]
  efficacy (kill in %): 100%
Myzus persicae; [3]
  efficacy (kill in %): 100%
[1]; LC-MS in the acidic range
  log P (acid): 1.93

## Cc1cccc(Cn2ccc(NC(=O)c3cccnc3)n2)c1 [Compound I-1-72]
Myzus persicae; [2]
  efficacy (kill in %): 100%
Myzus persicae; [3]
  efficacy (kill in %): 100%
[1]; LC-MS in the acidic range
  log P (acid): 1.83

## Cc1cc(C)nc(-n2nc(NC(=O)c3cccnc3)cc2C)n1 [Compound I-1-139]
Myzus persicae; [2]
  efficacy (kill in %): 100%
Myzus persicae; [3]
  efficacy (kill in %): 100%
[1]; LC-MS in the acidic range
  log P (acid): 1.6

## O=C(Nc1ncn(Cc2cccc(Cl)c2)n1)c1cccnc1 [Compound I-2-19]
Myzus persicae; [3]
  efficacy (kill in %): 100%
[1]; [7]
  log P (acid): 1.33

## N#Cc1ccccc1Cn1ccc(NC(=O)c2cccnc2)n1 [Compound I-1-89]
Myzus persicae; [2]
  efficacy (kill in %): 100%
Myzus persicae; [3]
  efficacy (kill in %): 100%
[1]; LC-MS in the acidic range
  log P (acid): 1.37

## O=C(Nc1cc(Cl)n(-c2ccccc2)n1)c1cccnc1 [Compound I-1-274]
Myzus persicae; [3]
  efficacy (kill in %): 100%
[1]; LC-MS in the acidic range
  log P (acid): 2.1

## Cc1cc(NC(=O)c2cccnc2)nn1Cc1ccc(F)cc1 [Compound I-1-62]
Myzus persicae; [2]
  efficacy (kill in %): 100%
Myzus persicae; [3]
  efficacy (kill in %): 100%
[1]; LC-MS in the acidic range
  log P (acid): 1.88

## Cc1cc(NC(=O)c2cccnc2)nn1C(=O)NCc1ccc(Cl)cc1 [Compound I-1-325]
Myzus persicae; [2]
  efficacy (kill in %): 100%
Myzus persicae; [3]
  efficacy (kill in %): 100%
[1]; LC-MS in the acidic range
  log P (acid): 2.34

## CC(C)(C)c1ccc(Cn2ccc(NC(=O)c3ccc(Cl)nc3)n2)cc1 [Compound I-1-86]
Myzus persicae; [3]
  efficacy (kill in %): 100%
[1]; LC-MS in the acidic range
  log P (acid): 3.54

## CCc1cc(NC(=O)c2cccnc2)nn1Cc1ccccc1 [Compound I-1-35, N-(1-Benzyl-5-ethyl-1H-pyrazol-3-yl)nicotinamide]
Myzus persicae; [3]
  pest or weed control at 30 ppm: 100%
[1]; [5]
  chromatographic logP: 2.03
[1]; [6]
  chromatographic logP: 2.03

## Cc1cc(NC(=O)c2cccnc2)nn1Cc1cn2cc(F)ccc2n1 [Compound I-1-159]
Myzus persicae; [2]
  efficacy (kill in %): 100%
Myzus persicae; [3]
  efficacy (kill in %): 100%
[1]; LC-MS in the acidic range
  log P (acid): 0.66

## Cc1cc(NC(=O)c2cccnc2)nn1C(=O)NC(C)c1ccc(F)cc1 (stereo not drawn) [Compound I-1-332]
Myzus persicae; [2]
  efficacy (kill in %): 100%
Myzus persicae; [3]
  efficacy (kill in %): 100%
[1]; LC-MS in the acidic range
  log P (acid): 2.28

## Cc1cc(NC(=O)c2cccnc2)nn1Cc1cn2cc(Cl)ccc2n1 [Compound I-1-160]
Myzus persicae; [2]
  efficacy (kill in %): 100%
Myzus persicae; [3]
  efficacy (kill in %): 100%
[1]; LC-MS in the acidic range
  log P (acid): 1.03

## Cc1cc(NC(=O)c2cccnc2)nn1CC(F)(F)c1ccc(F)cn1 [Compound I-1-294]
Myzus persicae; [3]
  efficacy (kill in %): 100%
[1]; LC-MS in the acidic range
  log P (acid): 1.77

## Cc1cc(N(CC(F)F)C(=O)c2cccnc2)nn1Cc1ncccn1 [Compound I-1-265]
Myzus persicae; [2]
  efficacy (kill in %): 100%
Myzus persicae; [3]
  efficacy (kill in %): 100%
[1]; LC-MS in the acidic range
  log P (acid): 1.19

## O=C(Nc1ccn(Cc2cccc(OC(F)(F)F)c2)n1)c1cccnc1 [Compound I-1-73]
Myzus persicae; [3]
  efficacy (kill in %): 100%
[1]; LC-MS in the acidic range
  log P (acid): 2.20

## Cc1cc(NC(=O)c2cccnc2)nn1-c1ccc(Cl)cc1Cl [Compound I-1-207]
Myzus persicae; [2]
  efficacy (kill in %): 100%
Myzus persicae; [3]
  efficacy (kill in %): 100%
[1]; LC-MS in the acidic range
  log P (acid): 2.36

## Cc1cc(NC(=O)c2cccnc2)nn1Cc1ccc2ccccc2n1 [Compound I-1-341]
Myzus persicae; [2]
  efficacy (kill in %): 100%
Myzus persicae; [3]
  efficacy (kill in %): 100%
[1]; LC-MS in the acidic range
  log P (acid): 1.66

## O=C(Nc1ccn(Cc2ccccc2C(F)(F)F)n1)c1cccnc1 [Compound I-1-91]
Myzus persicae; [3]
  efficacy (kill in %): 100%
[1]; LC-MS in the acidic range
  log P (acid): 2.09

## COc1ccc(Cn2ccc(NC(=O)c3cccnc3)n2)cc1 [Compound I-1-78]
Myzus persicae; [3]
  efficacy (kill in %): 100%
[1]; LC-MS in the acidic range
  log P (acid): 1.55
